The values below come from a melting point compilation (Tetko et al.; mined from patent text by program, amines drawn as free bases though some values may be those of a salt).

For the compound `CCOCCn1c(N2CCCN(CCC3(c4ccccc4)CCN(C(=O)c4cc(OC)c(OC)c(OC)c4)C3)CC2)nc2ccccc21` (stereo not given), the melting point (as a rule, the temperature of the solid-liquid transition) fell in the range of 82 to 94 °C.

In the case of `CCC1c2cccn2-c2ccc(F)cc2N1S(=O)(=O)c1ccc(O)c(C)c1` (stereo not given), the melting point fell in the range of 175 to 177 °C.

Compound `C(=C\c1cc(/C=C/c2ccc3cc[nH]c3c2)[nH]n1)/c1ccc(N2CCOCC2)cc1` gave a melting point of 236 to 238 °C.

The compound `CCCn1c(=O)n2c(C)nnc2c2c1ncn2C` yielded a melting point of 192 to 194 °C.

Turning to `ClC1(Cl)C(Cl)(Cl)C1(Cl)c1ccccn1`, the melting point was 132 to 134 °C.

Take `CC(C)CC(C(=O)c1cccc(Cl)c1)c1ccccc1NC(C)(C)C` (stereo not given): the melting point was in the range of 172 to 174 °C.

Turning to `COc1cc(N)c(Cl)cc1C(=O)NCC1CCN(CCCCCC(=O)c2ccc3ccccc3c2)CC1`, the melting point lay in the range of 113 to 116 °C.

As for `O=S1(=O)NCC2(OCCO2)c2ccc3ccccc3c21`, the melting point was in the range of 202 to 204 °C.

With `Cc1ccc(-c2cc[nH]c2C=O)cc1`, the melting point lay in the range of 149 to 150 °C.

In the case of `CCCC(CCC)c1nc(-c2ccncc2)c(-c2ccc(Cl)cc2)n1CC`, the melting point was 152 to 155 °C.

In turn, `C[C@@H]1S[C@@H](C(=O)Nc2ccc(CN3CCSCC3)cc2)Cc2cc3c(cc2C1=O)OCO3` returned a melting point of 204 to 206 °C.

Consider `CN(CCC(Oc1ccc(C(=O)c2cc3ccccc3s2)cc1)c1ccc(Cl)cc1)CC(=O)O` (stereo not given), for which the melting point fell in the range of 101 to 112 °C.

As for `C=CC[C@H](C(N)=O)[C@@H](CC(C)C)C(=O)NC1N=C(N2CCCCC2)c2ccccc2N(C)C1=O` (stereo not given in full), the melting point was in the range of 231 to 238 °C.

`COC(=O)Cc1ccc(Sc2ccccc2C(=O)O)c([N+](=O)[O-])c1`: the melting point fell in the range of 135 to 136 °C.

Turning to `CC(=O)NC[C@H]1CN(c2ccc(N3CCC(O)(CC(N)=O)CC3)c(F)c2)C(=O)O1`, the melting point lay in the range of 208 to 210 °C.

Consider `CC(=O)OC(C=C(C)C=CC=C(C)C=O)OC(C)=O`, for which the melting point was determined as 99.5 °C.

Compound `O=c1[nH]c2cc(Cl)c(Cl)c(Cl)c2o1` gave a melting point of 253 to 254 °C.

Compound `Cc1oc(-c2ccccc2F)nc1CCOc1ccc(CN(O)C(N)=O)cc1` showed a melting point of 151 to 152 °C.

In turn, `O=Cc1cn(-c2cccnc2)c2ccccc12` showed a melting point of 148 to 150 °C.

For `N#CC(C#N)=C(NC1CCN(Cc2ccccc2)CC1)NC1CCN(Cc2ccccc2)CC1`, the melting point is 147 to 148 °C.

`COc1ccc(CCNCC(O)c2ccccc2OC)cc1OC` (stereo not given) returned a melting point of 88 °C.

`OC1Cc2ccc(F)cc2Sc2ccc(I)cc21` (stereo not given) returned a melting point of 162 °C.

In turn, `CC(C)(C)OC(=O)CCc1cc(S(C)(=O)=O)cc(-c2nc(=O)c3ccc(Cl)cc3s2)n1` had a melting point of 184 °C.

Take `O=Cc1ccc(O)c(NC(=O)CCl)c1`: the melting point is 190 to 192 °C.

Compound `COc1ccccc1C1(C(C)(C)O)CCN(C)CC1` gave a melting point of 110 to 111 °C.

`O=C1c2ccccc2C(=O)N1N1C2CCCCC21` (stereo not given) registered a melting point of 75 to 77 °C.

The compound `C=CCn1c(C)c(C)c2cnnc(OCc3ccc(F)cc3)c21` showed a melting point of 125 to 126 °C.

Take `Clc1ccc(C2=CCCC2)cc1`: the melting point is 71 to 73 °C.

The compound `CC1=C(C(=O)Nc2ccc(Cl)cc2)SCCS1` had a melting point of 115 to 117 °C.

With `OC(COc1ccccc1-c1nc2ccccc2s1)CN1CCN(C(c2ccccc2)c2ccccc2)CC1` (stereo not given), the melting point lay within 152 to 155 °C.

`Cn1cc(OS(C)(=O)=O)c(=O)c2ccc(OCC(F)(F)F)cc21` gave a melting point of 110 to 112 °C.

`Cc1c(NC(=O)c2ccc(OC[C@@H]3CCCO3)cc2)ccc2cc(CNCC3(C)COC3)cnc12` had a melting point of 117 to 119 °C.

`CC(=O)Nc1ccc(OC(F)F)c(OC(F)F)c1` came in with a melting point of 65 to 67 °C.

`CCOC(=O)c1cc2c([nH]1)c(N(C)S(=O)(=O)c1cccs1)cn2CC`: the melting point was found to be 122 °C.

On to `C=C(CC(=O)Nc1cc(Cl)cc(Cl)c1)C(=O)OCCCCCC`, for which the melting point turned out to be 60 °C.

Consider `CCOC(=O)CC1C(=O)N(CCc2c[nH]c3ccccc23)CCN1C(=O)c1ccccc1` (stereo not given), for which the melting point came to 144 °C.

Regarding `COC(=O)c1ccc(C(=O)c2cccc3ccccc23)n1C`, the melting point stood at 80 °C.

On to `O=Cc1cc(C(F)(F)F)ccc1Sc1ccccc1F`, for which the melting point lay within 130 to 132 °C.

As to `COC(=O)c1ccc(C#Cc2ccc(OCC(O)CO)c(C34CC5CC(CC(C5)C3)C4)c2)cc1` (stereo not given), the melting point lay in the range of 202 to 203 °C.

For `O=C(N1CCc2ccc(Cl)c(O)c2CC1)C(F)(F)F`, the melting point fell in the range of 133 to 134 °C.

With `Nc1nc(-c2cc(Cl)ccc2Cl)nc(N2CCOCC2)n1`, the melting point was in the range of 189 to 191 °C.

With `Cc1cc(N(N)c2ccccc2)nc(N)n1`, the melting point is 173 to 174 °C.

`Cn1cccc1C(=O)C(C#N)C(=O)Nc1ccccc1` (stereo not given) yielded a melting point of 170 to 172 °C.

Consider `Cc1cccc(C2=CCN(CCCn3c(=O)[nH]c4cccc(C)c4c3=O)CC2)n1`, for which the melting point fell in the range of 200 to 203 °C.

`CCc1c2nc(-c3cc(S(C)(=O)=O)ccc3OCC(C)C)[nH]c(=O)c2nn1C1CCNCC1` displayed a melting point of 263 to 265 °C.

In turn, `CN1C(=O)CCC2=C1CCc1cc(F)ccc12` gave a melting point of 108 °C.

`CCOC(=O)C1=C(C)NC(C)=C(C(=O)OCCN)C1c1cccc([N+](=O)[O-])c1` (stereo not given) came in with a melting point of 137 to 139 °C.

For the compound `CCOC(=O)CC(NC(=O)c1ccc(C)cc1)C(=O)c1ccco1` (stereo not given), the melting point fell in the range of 83.5 to 84.5 °C.

On to `Cc1cc(Cl)ccc1OCC(=O)N1Cc2ccc(C(=O)c3ccc(Cl)cc3)n2Cc2ccccc21`, for which the melting point was in the range of 175 to 176 °C.

For `Cn1cncc1C(CC#N)(c1ccc(Cl)cc1)c1ccc2c(c1)c(-c1cccc(Cl)c1)cc(=O)n2C` (stereo not given), the melting point was 151 °C.

`Cc1ccccc1-c1cc(Cl)cc2c1NC(CN)CO2` (stereo not given) had a melting point of 86 °C.

In turn, `OCc1cc2sccc2s1` yielded a melting point of 91 to 93 °C.

Compound `Cc1c(SCC(=O)N2CCOC(CN(C)C)C2)ccnc1CSc1nc2ccccc2[nH]1` (stereo not given) showed a melting point of 160 °C.

With `CNC(=O)[C@H](Cc1ccccc1)NC(=O)[C@H](CC(C)C)N[C@H](CCN(C(=O)OCc1ccccc1)C(=O)OCc1ccccc1)C(=O)OC(C)(C)C`, the melting point was in the range of 95 to 99 °C.

Compound `Cc1ccc(N2CCN(c3c(C)c(C)c4c(c3C)CC(C)(C)O4)CC2)cc1Cl` registered a melting point of 146 to 148 °C.

In the case of `Cc1c(OC(F)F)ccnc1CSc1nc2ccc(O)cc2[nH]1`, the melting point fell in the range of 214 to 215 °C.

Regarding `CCc1nc(N)nc(O)c1I`, the melting point lay within 199 to 200 °C.

`Clc1ccc(-n2ccc(OCc3ccccc3Br)n2)cc1` gave a melting point of 45 °C.

Consider `CN1CCCC1=NC(=O)Nc1cc(Cl)ccc1Cl`, for which the melting point fell in the range of 148 to 150 °C.

With `CC(C)CNC(=O)C(C)NC(=O)C(C)NC(=O)C(C)NC(=O)OCc1ccccc1` (stereo not given), the melting point is 260 to 262 °C.

For the compound `CCOc1ccc(OCC(C)(NS(=O)(=O)Cc2ccccc2)C(=O)N(C)OC)cc1` (stereo not given), the melting point lay within 179 to 181 °C.

`O=C(O)COc1ccc(SCc2ccc(OCc3ccc(F)c(C(F)(F)F)c3)cc2)c2c1CCC2` had a melting point of 116 to 117 °C.

For the compound `CN(C)C(=O)C1=NO[C@@H](c2ccccc2)C1`, the melting point fell in the range of 59 to 61 °C.

Compound `CC(C)(C)OC(=O)NCCc1ccc(N)cc1` came in with a melting point of 71 to 73 °C.

On to `CC(C)/C=c1\[nH]c(=O)/c(=C/c2c[nH]c3ccccc23)[nH]c1=O`, for which the melting point is above 300 °C.

Compound `COc1cccc(OC)c1C(=O)NCCSCc1cccc(Cl)c1` returned a melting point of 90 to 91 °C.

As to `CN(C)CCNc1ccc(O)c2c1C(=O)c1c(O)ccc(O)c1C2=O`, the melting point was in the range of 171 to 172 °C.

`CCOC(=O)C1=CCCCC1S(=O)(=O)Nn1cccc1CC` (stereo not given): the melting point lay in the range of 77 to 78 °C.

The compound `CCCCCCCCCCCCCCCc1cc2cc(C(=O)OCC)ccc2[nH]1` showed a melting point of 89 to 91 °C.

As to `CC(C)(C)c1ccc(C(=O)Cc2ccncc2)cc1`, the melting point fell in the range of 75 to 76 °C.

`N#Cc1c(OCCN2CCOCC2)cccc1Oc1ccc(-c2cn(C3CCOCC3)c3ncnc(N)c23)cc1` yielded a melting point of 110 °C.

Compound `Cn1c(=O)c(C(=O)O)c(-c2ccccc2Cl)c2cccnc21` returned a melting point of 178 to 180 °C.

Compound `c1ccc(-c2cnc(N3CCc4c([nH]c5ccccc45)C3C3Cc4ccccc4O3)nc2)nc1` (stereo not given) yielded a melting point of 170 to 171 °C.

Compound `Cc1[nH]cnc1CSCCNC1=C([N+](=O)[O-])CCN1` displayed a melting point of 208 °C.

`O=C(c1ccc(F)c(F)c1)N1CCC[C@H](c2nc(-c3ccccc3)no2)C1`: the melting point was 149 to 151 °C.

With `NS(=O)(=O)c1ccc(-n2nccc2-c2ccc(Cl)cc2)cc1`, the melting point was in the range of 185 to 187 °C.

For the compound `c1cnc(N2CCN(Cc3ccc4c(c3)SCO4)CC2)nc1`, the melting point was in the range of 90 to 91 °C.

As for `COC(=O)c1ccc(-c2cc(-c3ccccc3)no2)cc1`, the melting point was 205 to 206 °C.

On to `COc1cc2c(cc1OC)-c1c(-c3ccccc3)c(-c3cc(C)c(O)c(C)c3)c(C)n1CC2`, for which the melting point lay within 210 to 214 °C.

For the compound `O=C(NCc1ccccn1)Nc1cc(N2CC(c3ccccc3)OC2=O)ccn1` (stereo not given), the melting point is 190 to 191 °C.

As for `CNC(=O)CNC(=S)c1cccnc1`, the melting point lay within 135 to 137 °C.

The compound `CC(C)(C)c1cc(Cl)c(Cl)cc1[N+](=O)[O-]` displayed a melting point of 80 °C.

Turning to `COc1ccc2nccc(CCC[C@@H]3CCN(CCC(F)c4ccccc4)C[C@@H]3C(=O)O)c2c1` (stereo not given in full), the melting point worked out at 60 °C.

`CCOC(=O)c1cn(Cc2ccccc2OC)c2sc(-c3ccc(OC)cc3)c(C)c2c1=O`: the melting point lay in the range of 165 to 167 °C.

`COc1c2c(c(OC)c(OC)c1OC)CC(CCCCOc1ccc(C(=O)N3CCOCC3)cc1)C2` came in with a melting point of 64 to 72 °C.

On to `CC(C(N)=O)c1ccc2c(c1)C(=O)Cc1ccc(Cl)cc1S2` (stereo not given), for which the melting point is 207 to 208 °C.

As to `O=C(O)C(=O)c1cc2ccccc2s1`, the melting point was determined as 176 °C.

Compound `Cc1[nH]c2ccccc2c1C1=C(Cl)C(=O)C=C(Cl)C1=O` displayed a melting point of 158 to 159 °C.

Take `CCCn1c(=O)c2c(nc(C=Cc3ccc(S(=O)(=O)O)cc3)n2C)n(CCC)c1=O`: the melting point was above 270 °C.

Consider `c1ccc(COc2ccc(OCC3CO3)cc2)cc1` (stereo not given), for which the melting point turned out to be 68 °C.
